Target: unphosphorylated-BTK kinase domain (UP-BTK), GST-tagged human BTK (389-659aa) (Homo sapiens (Human), UniProt Q06187)
Test: BTK kinase Lanthascreen binding assay
Conditions: pIC50 = negative log of the IC50 in molar
How it was run: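 Values are pIC50, i.e. negative log of IC50 in molar, derived from concentration–response fitting. Each compound competes with a fluorescently labelled tracer for the unphosphorylated kinase domain.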

[1] = 60 minutes incubation, 50 nM Tracer 236
[2] = unphosphorylated-BTK kinase domain, 60 minutes incubation, 50 nM Tracer 236
[3] = unphosphorylated-BTK kinase domain, 50 nM Tracer 236, 60 minutes

unphosphorylated-BTK kinase domain (UP-BTK), GST-tagged human BTK (389-659aa), sequence (Q06187 389-659): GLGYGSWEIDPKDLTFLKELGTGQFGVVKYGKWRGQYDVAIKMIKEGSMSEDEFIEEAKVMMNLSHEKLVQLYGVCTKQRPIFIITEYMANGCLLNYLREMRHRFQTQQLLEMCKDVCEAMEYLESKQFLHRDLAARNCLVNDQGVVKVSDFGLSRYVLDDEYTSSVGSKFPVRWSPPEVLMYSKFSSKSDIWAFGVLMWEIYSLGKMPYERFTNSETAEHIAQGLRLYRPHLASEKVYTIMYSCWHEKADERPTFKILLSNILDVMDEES

| Structure (SMILES) | BTK_I_binding pIC50 [1] | BTK_I_binding pIC50 [3] | other results |
| --- | --- | --- | --- |
| C=CC(=O)N1CC(F)C[C@@H](NC(=O)c2sc3nccc4c3c2NC(=O)N4c2ccc(Oc3ccccc3)cc2C)C1 (stereo in doubt) [Example 3, N-((3R,5S)-1-Acryloyl-5-fluoropiperidin-3-yl)-5-(2-methyl-4-phenoxyphenyl)-4-oxo-4,5-dihydro-3H-1-thia-3,5,8-triazaacenaphthylene-2-carboxamide] | 7.9 |  |  |
| C=CC(=O)N1CC[C@@H](NC(=O)c2sc3nccc4c3c2NC(=O)N4c2ccc(Oc3ccccc3)cc2C)C1 (single isomer, unassigned) [Example 5, (R)—N-(1-Acryloylpyrrolidin-3-yl)-5-(*S)-(2-methyl-4-phenoxyphenyl)-4-oxo-4,5-dihydro-3H-1-thia-3,5,8-triazaacenaphthylene-2-carboxamide] | 8.1 |  |  |
| O=C(N[C@@H]1CCN(C(=O)c2ccccc2)C1)c1sc2nccc3c2c1NC(=O)N3c1ccc(Oc2ccccc2)cc1 [Example 914, (R)—N-(1-Benzoylpyrrolidin-3-yl)-4-oxo-5-(4-phenoxyphenyl)-4,5-dihydro-3H-1-thia-3,5,8-triazaacenaphthylene-2-carboxamide] |  |  | BTK_I_binding pIC50 [2]: 6.5 |
| O=C(N[C@@H]1CCNC1)c1sc2nccc3c2c1NC(=O)N3c1ccc(Oc2ccccc2)cc1 [Example 911, (R)-4-Oxo-5-(4-phenoxyphenyl)-N-(pyrrolidin-3-yl)-4,5-dihydro-3H-1-thia-3,5,8-triazaacenaphthylene-2-carboxamide] |  |  | BTK_I_binding pIC50 [2]: 6.6 |
| Cc1cc(Oc2ccccc2)ccc1N1C(=O)Nc2c(C(=O)N[C@H]3CN(C)C[C@@H]3F)sc3nccc1c23 [Example 186, N-((3S,4S)-4-Fluoro-1-methylpyrrolidin-3-yl)-5-(2-methyl-4-phenoxyphenyl)-4-oxo-4,5-dihydro-3H-1-thia-3,5,8-triazaacenaphthylene-2-carboxamide] | 6.8 |  |  |
| C=CC(=O)N1CCC[C@@H](NC(=O)c2sc3nccc4c3c2NC(=O)N4c2cc3ccccc3s2)C1 [Example 427, (R)—N-(1-Acryloylpiperidin-3-yl)-5-(benzo[b]thiophen-2-yl)-4-oxo-4,5-dihydro-3H-1-thia-3,5,8-triazaacenaphthylene-2-carboxamide] |  | 6.3 |  |
| Cc1cc(Oc2ccccc2)ccc1N1C(=O)Nc2c(C(=O)NC3CC[C@@H](C)NC3)sc3nccc1c23 (mixture of isomers) [Example 173, 5-(2-Methyl-4-phenoxyphenyl)-N-((6R)-6-methylpiperidin-3-yl)-4-oxo-4,5-dihydro-3H-1-thia-3,5,8-triazaacenaphthylene-2-carboxamide] |  |  | IC50 (60 minutes incubation, 50 nM Tracer 236, read-out: BTK_I_binding pIC50 (converted)): 0.158 µM |
| Cc1cc(Oc2ccccc2)ccc1N1C(=O)Nc2c(C(=O)N[C@@H]3CCCN(C(=O)/C=C/CN4CCCC4)C3)sc3nccc1c23 (single isomer, unassigned) [Example 845, (R,E)-5-(*S)-(2-Methyl-4-phenoxyphenyl)-4-oxo-N-(1-(4-(pyrrolidin-1-yl)but-2-enoyl)piperidin-3-yl)-4,5-dihydro-3H-1-thia-3,5,8-triazaacenaphthylene-2-carboxamide] |  |  | BTK_I_binding pIC50 (Lanthascreen tracer competition, 60 minutes incubation): 7.6 |
| CNC/C=C/C(=O)N1CC[C@@H](NC(=O)c2sc3nccc4c3c2NC(=O)N4c2ccc(Oc3ccccc3)cc2C)C1 [Example 377, (R,E)-5-(2-Methyl-4-phenoxyphenyl)-N-(1-(4-(methylamino)but-2-enoyl)pyrrolidin-3-yl)-4-oxo-4,5-dihydro-3H-1-thia-3,5,8-triazaacenaphthylene-2-carboxamide] |  | 7.5 |  |
| Cc1cc(Oc2ccccc2)ccc1N1C(=O)Nc2c(C(=O)N[C@@H]3CCCN(C(=O)/C(F)=C/CN)C3)sc3nccc1c23 [Example 549, (R,Z)—N-(1-(4-Amino-2-fluorobut-2-enoyl)piperidin-3-yl)-5-(2-methyl-4-phenoxyphenyl)-4-oxo-4,5-dihydro-3H-1-thia-3,5,8-triazaacenaphthylene-2-carboxamide] |  | 7.2 |  |

From patent publication US10800792B2, “Inhibitors of Bruton's tyrosine kinase and method of their use” (JANSSEN PHARMACEUTICA NV, priority 2015, dated 2020)
